Data taken from patent publication US20170049786A1, “MTOR PATHWAY INHIBITORS FOR TREATING OCULAR DISORDERS” (Santen Pharmaceutical Co., Ltd., priority 2009, published 2017).
Values joined by “and” are separate entries in the source; they are usually repeats but may differ in a detail not shown here. Equal entries are not always repeated. Where two headings read alike, the source gives them in different places. Values belong to the molecule of their own block, whether it stands above or below them.

Assays:
[1] = Solubility profiles of therapeutic agents (Table 71-1); conditions: for physical state when formulated in PEG400: 3% therapeutic agent and 97% PEG400
Experimental: Various therapeutic agents (e.g., rapalogs and/or mTOR inhibitors) were formulated as liquid solutions or suspensions for ophthalmic administration by injection. The therapeutic agents of exemplary formulations were as follows: everolimus, sirolimus, temsirolimus, zotarolimus, PP242, PP30 and palomid 529.
Liquid formulations containing 3% therapeutic agent (everolimus, sirolimus, temsirolimus or zotarolimus) and 97% PEG400 were prepared.

[2] = system: Human umbilical vein endothelial cells (HUVEC); assay: Inhibition of VEGF-induced proliferation, BrdU incorporation; assay type: cell-based; conditions: for IC50: Homo sapiens, 12.5 ng/mL VEGF
Experimental: The objective of this study was to evaluate the anti-proliferative effects of various therapeutic agents (everolimus, sirolimus, tacrolimus, temsirolimus, zotarolimus, PP242, PP30, Palomid 529, WYE-354, and KU-0063794) by measuring bromodeoxyuridine (BrdU) incorporation into cellular DNA. The therapeutic agents were dissolved directly into class A vials in less than 1% DMSO. Human umbilical vein endothelial cells (HUVEC) were obtained from Lonza (Catalog No. CC-2517). Vascular endothelial growth factor (VEGF) was obtained from R&D Systems (Catalog No. 293-VE-010). A BrdU Assay kit was obtained from Calbiochem (Catalog No. Q1A58). The inhibitory effect of rapamycin on HUVEC proliferation has been described (Kwon et al., Invest Opththamol Vis Sci, 46:454-4699, 2005).
Early passage HUVEC were plated at 2,000 cells/well in 96-well plates for 24 hours. The cells were then starved for 24 hours by replacing medium with medium lacking serum and HUVEC medium growth factors. After overnight starvation, wells were inoculated with (i) medium containing 2.5% serum and 12.5 ng/mL VEGF, (ii) medium with 12.5 ng/mL VEGF, (iii) medium with 2.5% serum or (iv) medium without serum or VEGF. Control compounds and test compounds were added at eight to eleven concentrations of each compound. All wells were set up in four replicates. BrdU was added to the medium 72 hours after feeding. After the overnight labeling, the cells were assayed according the manufacturers instructions and the plates were read at OD450. Average absorbance for replicate wells was used to calculate IC50 for the compounds of Table 72-1.

[3] = cited from earlier work
in vivo = conditions: rabbit
Experimental: Both eyes (or one eye depending on the study) of each animal received one or two drops (40 μl per drop) of the studied formulations using a calibrated pipette on day 0 (day of dosing).
For Tables 3-6, the solution of Example 46 (formulation #340) was administered two drops twice a day on both eyes, one time for Group I, two drops once a day on one eye, one time for Group II, and two drops once a day on both eyes for 6 days in Group III. In Group II, the right eye (OD) but not the left eye (OS) received eye drops. In a further study, one drop of the formulation #340 (40 μL containing 880 μg rapamycin) was administered on day zero.
For FIGS. 5 and 6, the aqueous rapamycin-containing formulations #329 and #330 of Table 1 were administered two drops once or twice a day for up to 28 days. For FIGS. 7 and 8, the aqueous rapamycin-containing formulations #331 and #332 of Table 1 were administered two drops twice a day for 6 days.
For FIG. 10A-B one drop of an aqueous or a non-aqueous formulation containing about 0.2% rapamycin were administered to both eyes of rabbit subjects once a day for six days (day 0 to day 6). As used herein, the terms “aqueous” and “hydrophilic” refer to formulations in which the dominant component is an aqueous compound such as water (e.g., formulations #342 and #342 of Table 1), while the terms “non-aqueous” and “lipophilic” refer to formulation in which the dominant component is a non-aqueous compound such as PEG 400 (e.g., formulations #344 and #345 of Table 1). Rapamycin concentrations in the cornea, retina choroid and blood were measured at day 7 and day 14.
For FIG. 11 one drop of a non-aqueous formulation containing about 0.2% rapamycin (e.g., formulations #344 or #345) was administered to both eyes of rabbit subjects once a day on day 0, 7, 14 and 21. Rapamycin concentrations in the cornea, retina choroid and aqueous humor were measured on days 3, 10, 17, 24 and 28.

[4] = Pilot pharmacokinetic study, intravitreal injection of rapalog/mTOR inhibitor formulations; concentration in the vitreous (FIGS. 17, 19, 20); conditions: 330 mcg by intravitreal injection of 10 μl of 3% agent in 97% PEG400; FIG. 17
Experimental: In a pilot pharmacokinetic study, 330 mcg of the therapeutic agent was administered to rabbits by intravitreal injection of a 10 μl volume.
In a pilot pharmacokinetic study, 220 mcg of the therapeutic agent was administered to rabbits by intravitreal injection of a 10 μl volume.

[5] = system: retinal and choroidal neovascularization (RNV and CNV); assay: Inhibition of retinal and choroidal neovascularization in vivo (subretinal […]/bFGF/VEGF model, fluorescein angiography); parameters: species or system New Zealand white rabbits; conditions: six microliter intravitreal dose of 2% agent in 4% ethanol, 94% PEG400 on Day 8; compared with 50 microliter AVASTIN (25 mg/ml)
Experimental: The objective of this study was to evaluate the effects of various therapeutic agents (everolimus, sirolimus, temsirolimus, and zotarolimus) on retinal and choroidal neovascularization (RNV and CNV) in a rabbit model (Qiu et al., Exp Eye Res, 83:141-152, 2006). Liquid formulations containing 2% (w/w) of the therapeutic agents were prepared in 4% (w/w) ethanol, and 94% (w/w) PEG400. As a positive control, a formulation containing 25 mg/ml AVASTIN was used. As a negative control, vehicle (4% ethanol, 96% PEG400) was used. Recombinant human basic fibroblast growth factor (bFGF) and vascular endothelial growth factor (VEGF) were obtained from R&D Systems. New Zealand white rabbits were used in this study.
On Day 1, the right eye of each animal received a subretinal injection of 10-20 μL of […] containing 10 μg/0.1 mL b-FGF and 2 μg/0.1 mL VEGF. […]-containing formulations are kept on ice until administered. Briefly, the conjunctiva was opened and a small slit in the sclera was made to expose the vitreous. A cannula connected to a tuberculin syringe was inserted into the subretinal space and the […]/growth factor combination was delivered. The scleral and conjunctival opening were closed with a 7-0 Vicryl suture. […]

Solubility, PEG 400 [1]: >13 mg/g and <22 mg/g
Compound: CC(C)n1nc(-c2cccc(C(=O)NC3=NCCS3)c2)c2c(N)ncnc21 [PP30]

Compound: CC(C)n1nc(-c2cc3cc(O)ccc3[nH]2)c2c(N)ncnc21 [PP242, 2-(4-Amino-1-isopropyl-1H-pyrazolo[3,4-d]pyrimidin-3-yl)-1H-indol-5-ol]
Solubility, PEG 400 [1]: >126 mg/g

Solubility, PEG 400 [1]: >624 mg/g
physical state when formulated in PEG400 [1]: went into solution
Compound: CO[C@H]1C[C@@H]2CC[C@@H](C)[C@@](O)(O2)C(=O)C(=O)N2CCCC[C@H]2C(=O)O[C@H]([C@H](C)C[C@@H]2CC[C@@H](OCCO)[C@H](OC)C2)CC(=O)[C@H](C)/C=C(\C)[C@@H](O)[C@@H](OC)C(=O)[C@H](C)C[C@H](C)/C=C/C=C/C=C/1C [everolimus]
IC50 [2]: 22.4 nM
Solubility, Aqueous ([3]; literature values): 1 to 10.0 µg/mL
Solubility, DMSO ([3]; literature values): >100 mg/mL
Solubility, Ethanol ([3]; literature values): >100 mg/mL

Compound: COc1ccc(COc2cc3oc(=O)c4cc(C(C)O)ccc4c3cc2OC)cc1 (stereo not shown) [palomid 529, 8-(1-hydroxy-ethyl)-2-methoxy-3-(4-methoxy-benzyloxy)-benzo[c]chromen-6-one]
potency as inhibitor of VEGF-induced proliferation relative to the other compounds tested [2]: less potent inhibitors of VEGF-induced proliferation than the other compounds tested

Solubility, DMSO [1]: >472 mg/g
Solubility, PEG 400 [1]: 3 mg/g
physical state when formulated in PEG400 [1]: suspension
Rapamycin level, Blood (in vivo; 1 day): 2.84 ng/mL
Rapamycin level, Blood (in vivo; 3 day): 27.29 ng/mL
concentration at 1 day (in vivo; Rapamycin level, Blood): 4.63 ng/mL
concentration at 3 day (in vivo; Rapamycin level, Blood): 37.1 ng/mL
concentration at 8 day (in vivo; Rapamycin level, Blood): 15.5 ng/mL
concentration at 10 day (in vivo; Rapamycin level, Blood): 7.67 ng/mL
concentration at 12 day (in vivo; Rapamycin level, Blood): 2.88 ng/mL
concentration at 14 day (in vivo; Rapamycin level, Blood): 48.3 ng/mL
concentration at 8 day (in vivo; Rapamycin level, Cornea): 169 ng/g
concentration at 10 day (in vivo; Rapamycin level, Cornea): 110 ng/g
concentration at 12 day (in vivo; Rapamycin level, Cornea): 97.9 ng/g
concentration at 14 day (in vivo; Rapamycin level, Cornea): 84.2 ng/g
concentration remaining in the vitreous after a single injection [4]: Sustained concentrations
Compound: CO[C@H]1C[C@@H]2CC[C@@H](C)[C@@](O)(O2)C(=O)C(=O)N2CCCC[C@H]2C(=O)O[C@H]([C@H](C)C[C@@H]2CC[C@@H](O)[C@H](OC)C2)CC(=O)[C@H](C)/C=C(\C)[C@@H](O)[C@@H](OC)C(=O)[C@H](C)C[C@H](C)/C=C/C=C/C=C/1C [sirolimus, rapamycin]
IC50 [2]: 29.5 nM
Solubility, Ethanol ([3]; literature value): >90 mg/g
Solubility, Aqueous ([3]; literature values): 1 to 2.6 µg/mL

Compound: C=CC[C@@H]1/C=C(\C)C[C@H](C)C[C@H](OC)[C@H]2O[C@@](O)(C(=O)C(=O)N3CCCC[C@H]3C(=O)O[C@H](/C(C)=C/[C@@H]3CC[C@@H](O)[C@H](OC)C3)[C@H](C)[C@@H](O)CC1=O)[C@H](C)C[C@@H]2OC [tacrolimus]
potency as inhibitor of VEGF-induced proliferation relative to the other compounds tested [2]: less potent inhibitors of VEGF-induced proliferation than the other compounds tested
IC50 [2]: 324000 nM

Compound: CO[C@H]1C[C@@H]2CC[C@@H](C)[C@@](O)(O2)C(=O)C(=O)N2CCCC[C@H]2C(=O)O[C@H]([C@H](C)C[C@@H]2CC[C@@H](OC(=O)C(C)(CO)CO)[C@H](OC)C2)CC(=O)[C@H](C)/C=C(\C)[C@@H](O)[C@@H](OC)C(=O)[C@H](C)C[C@H](C)/C=C/C=C/C=C/1C [temsirolimus]
IC50 [2]: 15.9 nM
Solubility, Aqueous ([3]; literature values): 10 to 20 µg/mL
Solubility, DMSO ([3]; literature values): >200 mg/mL
Solubility, Ethanol ([3]; literature values): >200 mg/mL

Compound: CO[C@H]1C[C@@H]2CC[C@@H](C)[C@@](O)(O2)C(=O)C(=O)N2CCCC[C@H]2C(=O)O[C@H]([C@H](C)C[C@@H]2CC[C@H](n3cnnn3)[C@H](OC)C2)CC(=O)[C@H](C)/C=C(\C)[C@@H](O)[C@@H](OC)C(=O)[C@H](C)C[C@H](C)/C=C/C=C/C=C/1C [zotarolimus]
IC50 [2]: 1.78 nM
inhibition of neovascular disease (fluorescein angiography grading) [5]: inhibited neovascular disease to a greater extent than a 50 microliter dose of AVASTIN
Solubility, DMSO ([3]; literature values): >1 mg/mL
Solubility, Ethanol ([3]; literature values): >100 mg/mL
Solubility, Aqueous ([3]; pH 6.5, literature value): 0.47 mcg/ml* pH 6.5
Solubility, Aqueous ([3]; pH 7.4, literature value): 0.53 mcg/ml* pH 7.4
